The values that follow come from patent publication US20060216749A1, “Chimeric gaba receptor” (priority 2003, published 2006).

Test [1] addresses hGABABR1a/R2 heterodimeric GABAB receptor (CHO membranes) (Homo sapiens, UniProt O75899+Q9UBS5). The experiment in a line: biochemical.
Description: (§1) Butyrate-stimulated (5 mM final) cells were scraped, after a short rinse with PBS, in 50 mM TrisHCl pH7.4 and centrifuged at 23500 g for 10 min. at 4° C. The pellet was homogenised in 5 mM TrisHCI pH 7.4 by Ultra-Turrax (24000 rpm) followed by centrifugation at 30000 g for 20 min. at 4° C. The resulting pellet was resuspended in 50 mM TrisHCl pH 7.4 and rehomogenised. Protein concentration was determined using the Bradford method.
An agonist filter binding assay has been developed in 96-well GF/B filterplate.
In test [2] the target is hGABABR1a/GABABR2 receptor (CHO membranes) (Homo sapiens, UniProt O75899+Q9UBS5). The experiment in a line: GTPγ35S activation assay.
Description: as §1
Filters were rinsed 6 times with cold 10 mM phosphate buffer pH 7.4, and dried overnight before addition of 30 μl Microscint O, and measurement in Topcount (Packard, 1 min./well).
Test [3] has as its target GABAB receptor expressed by the hGABABR1a/GABABR2 CHO cell line (Homo sapiens, UniProt O75899+Q9UBS5). The following applies: 10 μM in saturation assay, FIGS. 4a, b.
Description: Agonist centrifugation Binding AssayIn an alternative binding assay the non-bound ligand was separated from the membranes by centrifugation instead of filtration. The assay was performed according to the earlier described filter binding assay, with the difference that the non-bound ligand was separated from the membranes by centrifugation in a microcentrifuge at 12500 rpm for 10 minutes. The supernatant was discarded, the pellet was rinsed with washing buffer and dissolved in 200 μl water.
Test [4] concerns the target T1, native GABAB receptor, Rat (Rattus norvegicus, UniProt Q9Z0U4).
T1 construct: host or cells: rat tissue preparations
The following applies: published results; cited from earlier work.

Test [5] concerns the target native GABAB receptor, Pig (Sus scrofa, UniProt A0A480I1B8). The following applies: Facklam & Bowery, 1993; cited from earlier work.

Sequence of hGABABR1a/R2 heterodimeric GABAB receptor (CHO membranes) (Q9UBS5 20-961): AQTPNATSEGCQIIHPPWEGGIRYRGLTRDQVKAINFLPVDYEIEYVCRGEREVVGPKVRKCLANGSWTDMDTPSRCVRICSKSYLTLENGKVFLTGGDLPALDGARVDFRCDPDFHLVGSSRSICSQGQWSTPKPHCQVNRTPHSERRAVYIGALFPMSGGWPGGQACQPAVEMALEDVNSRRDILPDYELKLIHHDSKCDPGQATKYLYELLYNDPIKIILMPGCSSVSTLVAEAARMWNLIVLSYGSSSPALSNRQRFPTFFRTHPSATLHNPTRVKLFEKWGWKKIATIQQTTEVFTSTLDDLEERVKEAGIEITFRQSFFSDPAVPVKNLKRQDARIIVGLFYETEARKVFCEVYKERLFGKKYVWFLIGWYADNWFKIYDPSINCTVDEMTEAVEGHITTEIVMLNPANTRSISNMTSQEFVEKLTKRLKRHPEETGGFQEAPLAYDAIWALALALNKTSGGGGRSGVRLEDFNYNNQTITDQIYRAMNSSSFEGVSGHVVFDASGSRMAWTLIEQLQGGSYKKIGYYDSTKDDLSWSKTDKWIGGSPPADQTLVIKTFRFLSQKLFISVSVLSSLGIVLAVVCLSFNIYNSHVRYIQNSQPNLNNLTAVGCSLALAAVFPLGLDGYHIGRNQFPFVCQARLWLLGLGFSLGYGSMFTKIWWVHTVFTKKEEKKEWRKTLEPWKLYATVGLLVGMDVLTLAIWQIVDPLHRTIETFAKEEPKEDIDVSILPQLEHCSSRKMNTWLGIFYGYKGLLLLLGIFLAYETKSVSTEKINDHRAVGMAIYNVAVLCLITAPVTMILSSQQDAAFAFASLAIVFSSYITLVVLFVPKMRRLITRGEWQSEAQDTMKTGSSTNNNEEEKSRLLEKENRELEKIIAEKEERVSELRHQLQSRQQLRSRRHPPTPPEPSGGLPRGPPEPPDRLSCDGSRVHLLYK
Sequence of hGABABR1a/R2 heterodimeric GABAB receptor (CHO membranes) (O75899 42-941): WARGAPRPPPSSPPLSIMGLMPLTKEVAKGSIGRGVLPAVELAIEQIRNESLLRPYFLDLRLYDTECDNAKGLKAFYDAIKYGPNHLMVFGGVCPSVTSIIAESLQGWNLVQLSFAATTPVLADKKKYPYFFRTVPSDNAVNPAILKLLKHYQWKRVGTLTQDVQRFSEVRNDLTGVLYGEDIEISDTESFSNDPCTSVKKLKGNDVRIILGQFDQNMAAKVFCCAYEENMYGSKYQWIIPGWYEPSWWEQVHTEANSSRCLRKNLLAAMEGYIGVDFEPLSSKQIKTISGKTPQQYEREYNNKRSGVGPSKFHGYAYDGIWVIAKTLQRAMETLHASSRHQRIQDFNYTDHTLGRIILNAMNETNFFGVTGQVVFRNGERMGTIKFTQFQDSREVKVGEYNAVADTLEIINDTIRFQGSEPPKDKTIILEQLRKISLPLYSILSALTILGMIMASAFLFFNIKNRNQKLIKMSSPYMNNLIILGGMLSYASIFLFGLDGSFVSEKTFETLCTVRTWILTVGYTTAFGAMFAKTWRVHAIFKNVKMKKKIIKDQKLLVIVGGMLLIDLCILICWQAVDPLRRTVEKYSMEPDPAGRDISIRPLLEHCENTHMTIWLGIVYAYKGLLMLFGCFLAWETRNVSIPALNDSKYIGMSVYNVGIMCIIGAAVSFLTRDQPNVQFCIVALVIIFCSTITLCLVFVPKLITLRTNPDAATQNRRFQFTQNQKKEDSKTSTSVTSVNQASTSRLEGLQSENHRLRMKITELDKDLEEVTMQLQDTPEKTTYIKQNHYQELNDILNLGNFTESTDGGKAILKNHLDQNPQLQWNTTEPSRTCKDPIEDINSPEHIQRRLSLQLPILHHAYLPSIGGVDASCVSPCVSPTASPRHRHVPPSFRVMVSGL
Sequence of hGABABR1a/GABABR2 receptor (CHO membranes) (Q9UBS5 20-961): as the sequence (Q9UBS5 20-961) above
Sequence of hGABABR1a/GABABR2 receptor (CHO membranes) (O75899 42-941): as the sequence (O75899 42-941) above
Sequence of native GABAB receptor, Pig (A0A480I1B8 1-960): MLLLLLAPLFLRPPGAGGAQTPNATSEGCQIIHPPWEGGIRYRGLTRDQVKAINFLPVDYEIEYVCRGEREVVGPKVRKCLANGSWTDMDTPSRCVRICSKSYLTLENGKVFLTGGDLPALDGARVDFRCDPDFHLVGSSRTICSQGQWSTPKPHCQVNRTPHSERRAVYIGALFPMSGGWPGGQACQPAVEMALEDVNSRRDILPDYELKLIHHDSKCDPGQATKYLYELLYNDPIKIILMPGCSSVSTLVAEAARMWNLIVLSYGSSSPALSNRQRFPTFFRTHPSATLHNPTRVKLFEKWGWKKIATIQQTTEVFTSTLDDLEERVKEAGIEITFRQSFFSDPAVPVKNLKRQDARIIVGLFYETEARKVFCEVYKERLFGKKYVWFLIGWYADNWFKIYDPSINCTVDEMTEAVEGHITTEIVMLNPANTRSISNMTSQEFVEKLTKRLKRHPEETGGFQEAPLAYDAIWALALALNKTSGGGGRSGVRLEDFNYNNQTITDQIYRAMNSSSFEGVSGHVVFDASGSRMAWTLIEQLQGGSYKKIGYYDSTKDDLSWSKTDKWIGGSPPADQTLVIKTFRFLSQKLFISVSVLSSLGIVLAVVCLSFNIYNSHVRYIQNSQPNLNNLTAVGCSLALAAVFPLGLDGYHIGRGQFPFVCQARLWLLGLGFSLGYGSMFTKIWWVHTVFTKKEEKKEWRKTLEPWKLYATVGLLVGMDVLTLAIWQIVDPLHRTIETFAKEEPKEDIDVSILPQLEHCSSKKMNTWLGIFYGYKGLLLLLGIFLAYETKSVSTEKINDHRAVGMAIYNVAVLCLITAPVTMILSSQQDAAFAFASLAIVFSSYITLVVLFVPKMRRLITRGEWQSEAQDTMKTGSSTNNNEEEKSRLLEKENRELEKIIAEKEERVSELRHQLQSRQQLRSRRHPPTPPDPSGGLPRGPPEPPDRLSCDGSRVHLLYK
Sequence of GABAB receptor expressed by the hGABABR1a/GABABR2 CHO cell line (Q9UBS5 20-961): as the sequence (Q9UBS5 20-961) above
Sequence of GABAB receptor expressed by the hGABABR1a/GABABR2 CHO cell line (O75899 42-941): as the sequence (O75899 42-941) above
T1 sequence (Q9Z0U4 20-960): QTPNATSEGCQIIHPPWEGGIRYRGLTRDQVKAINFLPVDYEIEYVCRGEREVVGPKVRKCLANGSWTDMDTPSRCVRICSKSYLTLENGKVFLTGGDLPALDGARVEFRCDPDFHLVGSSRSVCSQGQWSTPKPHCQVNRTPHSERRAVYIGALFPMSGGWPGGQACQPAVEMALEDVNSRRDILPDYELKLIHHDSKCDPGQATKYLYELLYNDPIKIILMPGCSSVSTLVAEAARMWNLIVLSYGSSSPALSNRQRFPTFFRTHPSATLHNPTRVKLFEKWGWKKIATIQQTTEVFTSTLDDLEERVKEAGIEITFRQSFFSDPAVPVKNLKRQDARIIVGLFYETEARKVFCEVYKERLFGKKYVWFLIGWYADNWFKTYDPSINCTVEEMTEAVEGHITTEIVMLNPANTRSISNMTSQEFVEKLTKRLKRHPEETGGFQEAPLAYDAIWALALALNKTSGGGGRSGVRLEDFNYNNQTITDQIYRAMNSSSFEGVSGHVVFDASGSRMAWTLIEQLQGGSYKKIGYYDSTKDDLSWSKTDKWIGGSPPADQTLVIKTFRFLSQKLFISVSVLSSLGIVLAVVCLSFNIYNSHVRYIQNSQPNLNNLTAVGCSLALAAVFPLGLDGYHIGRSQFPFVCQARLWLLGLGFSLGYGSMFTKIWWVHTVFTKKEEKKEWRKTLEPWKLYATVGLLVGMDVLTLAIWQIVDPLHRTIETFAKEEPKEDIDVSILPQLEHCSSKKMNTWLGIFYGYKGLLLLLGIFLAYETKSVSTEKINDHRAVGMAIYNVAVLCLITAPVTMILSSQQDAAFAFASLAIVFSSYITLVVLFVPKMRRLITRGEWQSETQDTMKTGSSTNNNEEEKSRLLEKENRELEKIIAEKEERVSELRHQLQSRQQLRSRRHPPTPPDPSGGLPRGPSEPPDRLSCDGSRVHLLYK
T1 sequence (O88871 41-940 partner): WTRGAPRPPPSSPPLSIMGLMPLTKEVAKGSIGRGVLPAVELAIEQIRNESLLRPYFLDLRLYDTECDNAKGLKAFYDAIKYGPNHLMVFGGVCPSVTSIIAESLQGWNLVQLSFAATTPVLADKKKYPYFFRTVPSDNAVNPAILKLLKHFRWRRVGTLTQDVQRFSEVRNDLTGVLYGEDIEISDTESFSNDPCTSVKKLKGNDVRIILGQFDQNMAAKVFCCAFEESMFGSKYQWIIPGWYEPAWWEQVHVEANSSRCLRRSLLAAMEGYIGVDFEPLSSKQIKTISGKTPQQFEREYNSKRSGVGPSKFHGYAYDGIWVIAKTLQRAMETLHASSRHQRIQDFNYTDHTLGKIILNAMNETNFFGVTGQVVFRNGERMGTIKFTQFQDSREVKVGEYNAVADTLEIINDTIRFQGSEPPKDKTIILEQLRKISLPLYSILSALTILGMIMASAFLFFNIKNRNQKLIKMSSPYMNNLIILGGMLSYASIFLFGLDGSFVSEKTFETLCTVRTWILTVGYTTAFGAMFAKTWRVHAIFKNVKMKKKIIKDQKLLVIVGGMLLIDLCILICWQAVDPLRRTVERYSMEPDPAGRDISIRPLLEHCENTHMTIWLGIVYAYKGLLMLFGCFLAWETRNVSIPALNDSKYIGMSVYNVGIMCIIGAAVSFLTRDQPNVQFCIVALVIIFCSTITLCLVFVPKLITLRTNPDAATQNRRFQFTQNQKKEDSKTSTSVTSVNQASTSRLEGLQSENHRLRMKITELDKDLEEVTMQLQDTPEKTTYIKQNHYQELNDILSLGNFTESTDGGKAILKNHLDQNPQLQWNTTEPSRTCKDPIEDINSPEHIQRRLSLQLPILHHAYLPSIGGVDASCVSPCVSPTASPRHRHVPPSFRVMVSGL

Turning to `CC1(C)CC2=Nc3c(N)ncnc3SC2=C(NCCCC(=O)O)C1`, the IC50 – broadly, the midpoint of a concentration-inhibition curve – in test [1] is 151 nM. Further, in test [2], the “SIGNAL TRANSDUCTION GTPγS binding % Effect at 10 μM” value is recorded as 40.95%. The compound `CC1(C)CC2=Nc3ccccc3SC2=C(NCCCC(=O)O)C1` had an IC50 in test [1] of 372 nM. Also, the “SIGNAL TRANSDUCTION GTPγS binding % Effect at 10 μM” value in test [2] is 24.44%. `CC1(C)CC2=Nc3c(Cl)ncnc3SC2=C(NCCCC(=O)O)C1` gave an IC50 in test [1] of 135 nM. In test [2], the “SIGNAL TRANSDUCTION GTPγS binding % Effect at 10 μM” value is listed as 61.93%.

For `CC(C)(CO)Cc1cc(C(C)(C)C)c(O)c(C(C)(C)C)c1` [CGP7930, reference compound], in test [2] (positive modulator, FIG. 1), the “effect on GABA-stimulated GTPγ35S binding” value is “potentiated”. As to `C[C@H](NC[C@H](O)CP(=O)(O)CC1CCCCC1)c1ccc(Cl)c(Cl)c1` [CGP54626, reference compound], the “effect on 3H-GABA binding to both the high and the low affinity site” value in test [3] is reported as “blocked”. `C[C@H](NC[C@H](O)CP(=O)(O)CC1CCCCC1)c1ccc(Cl)c(Cl)c1` [^3H-CGP54626]: the Kd (commonly the constant that tells how readily two partners part at equilibrium) in test [4] is 1.5 nM; in test [5], 1.35 nM. Take `NCCCC(=O)O` [^3H-GABA]: the equilibrium dissociation constant (Kd) in test [5] is 26 nM. Take `CN(C)c1ncnc2c1N=C1CC(C)(C)CC(NCCCC(=O)O)=C1S2` [compound 1]: the “effect on 3H-GABA binding to both the high and the low affinity site” value in test [3] is given as “blocked”. Take `CN(C)c1ncnc2c1N=C1CC(C)(C)CC(NCCCC(=O)O)=C1S2` [drawing 15]: the concentration for half-maximal inhibition (IC50) in test [1] is 64.9 nM. Also, in test [2], the “SIGNAL TRANSDUCTION GTPγS binding % Effect at 10 μM” value was 45.7275%.
